Laboratory results published in ChEMBL document CHEMBL1201862, “PubChem BioAssay data set” (2004).
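Each compound was tested at five concentrations against cells in 96-well plates for 48 hours. Abbreviation: GI50, concentration required for 50% inhibition of growth.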 Active and inactive are the calls of the source. No stated cut-off is given here; in the data, active = GI50 up to about 1.1 µM and inactive = higher.

How the values were obtained:
Assay in all cases: growth of human tumour cells (NCI), 48 h
[1] = test system: CCRF-CEM
[2] = test system: RXF 393
[3] = test system: UACC-257
[4] = test system: M14
[5] = test system: HOP-62
[6] = test system: SW-620
[7] = test system: NCI-H226
[8] = test system: SK-MEL-2
[9] = test system: RPMI-8226
[10] = test system: IGROV-1
[11] = test system: 786-0
[12] = test system: TK-10
[13] = test system: NCI-H522
[14] = test system: OVCAR-5

Measured: GI50

O=C(/C=C/c1ccc(OCCCOc2ccc(/C=C/C(=O)c3ccccc3)cc2)cc1)c1ccccc1
inactive: [1] > 100 µM | [2] > 100 µM | [3] > 100 µM | [4] > 100 µM | [5] > 100 µM | [6] > 100 µM | [7] 36.3 µM | [8] > 100 µM | [9] 50.7 µM | [10] > 100 µM | [11] 57.4 µM | [12] > 100 µM

CCc1cc2c(c3[nH]ccc13)[C@@H](C)C[C@H]2C
inactive: [1] 20.4 µM | [13] 16.2 µM | [2] 13.8 µM | [3] 19.9 µM | [4] 17.2 µM | [6] 19.8 µM | [7] 16.4 µM | [9] 20.1 µM | [10] 19.4 µM | [11] 15 µM | [12] 19.5 µM

CCOC(=O)NC(=O)c1cn(CCCO)c(=O)[nH]c1=O
inactive: [1] > 100 µM | [3] > 100 µM | [4] > 100 µM | [5] > 100 µM | [6] > 100 µM | [7] > 100 µM | [8] > 100 µM | [9] > 100 µM | [10] > 100 µM | [11] > 100 µM | [14] > 100 µM | [12] > 100 µM

CN(C)CC1CCCC(CN(C)C)C1=NOC(=O)c1ccccc1 (centres undefined)
inactive: [1] > 100 µM | [13] > 100 µM | [3] > 100 µM | [4] > 100 µM | [5] > 100 µM | [6] > 100 µM | [7] > 100 µM | [8] > 100 µM | [9] > 100 µM | [10] > 100 µM | [11] > 100 µM | [14] > 100 µM | [12] > 100 µM

CN(CCN(C)C(=O)CCOS(C)(=O)=O)C(=O)CCOS(C)(=O)=O
inactive: [1] 24.3 µM | [13] > 100 µM | [3] > 100 µM | [4] > 100 µM | [5] 59 µM | [6] > 100 µM | [7] > 100 µM | [8] > 100 µM | [9] > 100 µM | [10] > 100 µM | [11] > 100 µM | [14] > 100 µM | [12] > 100 µM

CCOC(=O)C12CCCC1(O)N(NC(=O)OC)C(C)=C2C(=O)OC (centres undefined)
inactive: [1] > 100 µM | [13] > 100 µM | [3] > 100 µM | [4] > 100 µM | [5] > 100 µM | [6] > 100 µM | [7] > 100 µM | [8] 14.1 µM | [9] > 100 µM | [10] > 100 µM | [11] 20.4 µM | [14] > 100 µM | [12] > 100 µM

CSc1nc(NC2OCC(OC(C)=O)C(OC(C)=O)C2OC(C)=O)c2c(OC(C)=O)c(C)c(=O)oc2n1 (centres undefined)
inactive: [1] > 100 µM | [2] > 100 µM | [3] > 100 µM | [4] > 100 µM | [5] > 100 µM | [6] > 100 µM | [7] > 100 µM | [8] > 100 µM | [9] > 100 µM | [10] > 100 µM | [11] > 100 µM | [14] > 100 µM | [12] > 100 µM

CC1=C(C)C(=O)c2c(cc3ccc4ccccc4n23)C1=O
inactive: [1] > 100 µM | [2] > 100 µM | [4] > 100 µM | [6] > 100 µM | [7] > 100 µM | [9] > 100 µM | [10] > 100 µM | [11] > 100 µM | [14] > 100 µM | [12] > 100 µM

CSc1nc2[nH]c(=O)c(C)nc2c(=O)[nH]1
inactive: [1] > 100 µM | [13] > 100 µM | [2] > 100 µM | [3] > 100 µM | [4] > 100 µM | [5] > 100 µM | [6] > 100 µM | [8] > 100 µM | [9] > 100 µM | [10] > 100 µM | [11] > 100 µM | [14] > 100 µM | [12] > 100 µM

COC(=O)C1C(=O)O[C@@H](c2ccc(OC)cc2)C1C(=O)OC (some centres undefined)
inactive: [1] > 100 µM | [2] > 100 µM | [3] > 100 µM | [4] > 100 µM | [5] > 100 µM | [6] > 100 µM | [7] > 100 µM | [9] > 100 µM | [10] > 100 µM | [11] > 100 µM | [14] > 100 µM | [12] > 100 µM

CC1CCP(=O)(c2ccccc2)CC1 (centres undefined)
inactive: [1] > 100 µM | [2] > 100 µM | [3] > 100 µM | [4] > 100 µM | [5] > 100 µM | [6] > 100 µM | [8] > 100 µM | [9] > 100 µM | [10] > 100 µM | [11] > 100 µM | [14] > 100 µM | [12] > 100 µM
